In a melting point compilation (Tetko et al.; mined from patent text by program, amines drawn as free bases though some values may be those of a salt):

Q: With `COC(=O)CCc1cc2cc(C(F)(F)F)ccc2n1S(=O)(=O)c1ccc2ncsc2c1` as the compound, how does the melting point read?
A: 130 to 132 °C

Q: Which melting point does the source give for `CCc1ccc2c3c(ccc(C=O)c13)-c1ccccc1-2` here?
A: 114 to 116 °C

Q: With `CCC(NC(=O)OC)c1ccc(Cl)c2nc3n(c12)CCCN3c1ccc(Cl)cc1Cl` (stereo unspecified) as the compound, how does the melting point read?
A: 201 to 203 °C

Q: With `CCOC(=O)N[C@@H]1CCc2c(ccc(OCc3ccccc3)c2C(=O)OC)[C@H]1O` (relative stereo) as the compound, how does the melting point read?
A: 147 to 148 °C

Q: For `O=Cc1cc(-n2cnnn2)cc2ccoc12`, which melting point is on record?
A: 174 to 175 °C

Q: For `O=C(NCC12CC3CC(CC(C3)C1)C2)c1cc(-c2ccccc2C(=O)O)ncc1Cl`, which melting point is on record?
A: 134 to 138 °C

Q: Which melting point does the source give for `O=C(Nc1ccc(Oc2ccccc2)cc1)N1CCN(c2ncnc3cc(OCc4ccccc4)c(OCc4ccccc4)cc23)CC1` here?
A: 137 to 138 °C

Q: For `CC(Cl)(Cl)C(NC(=O)c1cc(Cl)cc(Cl)c1)NC(=NS(=O)(=O)C(F)(F)F)Nc1cccnc1` (stereo unspecified), which melting point is on record?
A: 213 to 215 °C

Q: For `FC(F)c1nc2ccccc2n1-c1nc(Nc2cncnc2)nc(N2CCOCC2)n1`, which melting point is on record?
A: 290 to 292 °C

Q: For `CCC(=O)N1C2CCC1CN(Cc1cc3ccccc3o1)C2`, which melting point is on record?
A: 88 to 90 °C

Q: With `O=C(Nc1ccccn1)Nc1cccc2c1C1CCCCN1C2=O` (stereo unspecified) as the compound, how does the melting point read?
A: 142 °C

Q: With `O=C(NCCc1ccc(Cl)cc1)c1c(Cl)ccc2nc(N3CCC(C(=O)O)CC3)ccc12` as the compound, how does the melting point read?
A: 231 to 234 °C

Q: With `Cc1cc(SCc2cccc3nc(-c4ccc(C(F)(F)F)cc4)sc23)ccc1OCC(=O)O` as the compound, how does the melting point read?
A: 193 to 196 °C

Q: With `O=Cc1cc2c(cc1O)OCCO2` as the compound, how does the melting point read?
A: 114 to 115 °C

Q: With `N#Cc1ccc2c(c1)c1cc(C(=N)Nc3cccc(C(F)(F)F)c3)ccc1n2Cc1ccccc1` as the compound, how does the melting point read?
A: 210 to 220 °C

Q: Which melting point does the source give for `CC(C)N1CCN(c2ccc(OCCCCCCC(O)(Cn3ccnc3)c3ccc(Cl)cc3Cl)cc2)CC1` (stereo unspecified) here?
A: 143 to 145 °C

Q: For `CCCCCCCCCCCCSC(=S)SC(C)(C#N)CCC(=O)O` (stereo unspecified), which melting point is on record?
A: 58 to 59 °C

Q: For `CCCCCCCCCCNC(=O)c1cc(N)cc(C(=O)NCCCCCCCCCC)c1`, which melting point is on record?
A: 188 to 189 °C

Q: With `CC(C)(C)OC(=O)Nc1cc(N2CC3OC(C)(C)OC3C2)c(-c2ccc(F)cc2)cc1[N+](=O)[O-]` (stereo unspecified) as the compound, how does the melting point read?
A: 119 °C

Q: With `COc1ncnc(OC)c1CON=C(C)c1cc(C)cc(C)n1` as the compound, how does the melting point read?
A: 125 to 126 °C

Q: With `CC(=O)NCC1CN(c2cc(F)c(N3CCN(C(=O)COC(=O)c4cccnc4)CC3)c(F)c2)C(=O)O1` (stereo unspecified) as the compound, how does the melting point read?
A: 213 to 214 °C

Q: With `COc1cc(N)c(Cl)cc1C(=O)NC1C=NN(C)C1` (stereo unspecified) as the compound, how does the melting point read?
A: 173 to 175 °C

Q: Which melting point does the source give for `CC(C)(NCCCn1ccnc1)c1ccc(-c2ccc(OCc3ccccc3)cc2)cc1` here?
A: 93 to 95 °C

Q: For `COc1cccc(C2=CCN(C(=O)CSCc3c[nH]c4ccccc34)CC2)c1`, which melting point is on record?
A: 115 to 117 °C

Q: For `CC(C)(C)OC(=O)CCNC(=O)c1ccc2c(Cl)cnc(Cl)c2c1`, which melting point is on record?
A: 131 to 133 °C

Q: Which melting point does the source give for `CNC(=O)c1ccc(N2CCN(Cc3cc4c(c(-c5ccccc5)c3)OC(C)C(=O)N4)CC2)cc1` (stereo unspecified) here?
A: 185 to 189 °C

Q: With `CCOC(=O)CN(CCN(CCN1CC(=O)OC(=O)C1)CC(=O)O)CC(=O)O` as the compound, how does the melting point read?
A: 195 to 196 °C

Q: With `CCOP(=O)(/C=C/c1cn(-c2ccccc2)nc1OCc1ccc(OCc2nc(-c3ccco3)oc2C)c(OC)c1)OCC` as the compound, how does the melting point read?
A: 60 to 63 °C

Q: Which melting point does the source give for `COc1cc(-c2cc(C)no2)cc2oc(=O)c(C)c(C)c12` here?
A: 148 to 150 °C

Q: With `O=C(O)CN1CCN2c3ccccc3Cn3cccc3C2C1` (stereo unspecified) as the compound, how does the melting point read?
A: 249 to 250 °C

Q: With `Clc1ccccc1N=C1NCCN1` as the compound, how does the melting point read?
A: 133 to 134 °C

Q: With `CCCCCCCCCCN1C(=O)OC2(CCNCC2)C1(C)O` (stereo unspecified) as the compound, how does the melting point read?
A: 139 to 140 °C

Q: Which melting point does the source give for `O=C(O)COc1cc(-c2c3ccccc3c(Br)c3sc4ccccc4c23)ccc1Br` here?
A: 174 to 175 °C

Q: For `COc1ccc2c(c1)C(c1ccc([N+](=O)[O-])cc1)=NNC(=O)C2`, which melting point is on record?
A: 282 °C

Q: With `O=C(O)CCN1CCN2c3ccccc3Sc3ccccc3C2C1` (stereo unspecified) as the compound, how does the melting point read?
A: 218 to 220 °C

Q: Which melting point does the source give for `O=C(O)Cn1cc(Cc2nc3c(F)c(F)cc(F)c3s2)c2ccc(-c3ccccc3)cc21` here?
A: 156 to 159 °C
